Measured values from ChEMBL document CHEMBL4364313, “Synthesis of new 5,6,7,8-tetrahydropyrido[1,2-c]pyrimidine derivatives with rigidized tryptamine moiety as potential SSRI and 5-HT1A receptor ligands” (Eur J Med Chem, 2019).

Legend:
[1] = biological target: 5-hydroxytryptamine receptor 7 (Homo sapiens, UniProt P34969); assay: biochemical
Description: Displacement of [3H]-5-CT from human 5HT7 receptor expressed in HEK cells incubated for 1 hr by Cheng-Prusoff analysis based microbeta scintillation counting method

[2] = biological target: D(2) dopamine receptor (Homo sapiens, UniProt P14416); assay: biochemical
Description: Displacement of [3H]-raclopride from human D2 receptor expressed in HEK cells incubated for 1 hr by Cheng-Prusoff analysis based microbeta scintillation counting method

[3] = biological target: Serotonin transporter (SERT); assay: biochemical
[4] = biological target: 5-hydroxytryptamine receptor 2A (Homo sapiens, UniProt P28223); assay: Displacement of [3H]ketanserin from human 5HT2A receptor expressed in HEK293 cells incubated for 1.5 hrs by Cheng-Prusoff analysis based microbeta scintillation counting method; assay type: cell-based
5-hydroxytryptamine receptor 2A, sequence (P28223 whole entry): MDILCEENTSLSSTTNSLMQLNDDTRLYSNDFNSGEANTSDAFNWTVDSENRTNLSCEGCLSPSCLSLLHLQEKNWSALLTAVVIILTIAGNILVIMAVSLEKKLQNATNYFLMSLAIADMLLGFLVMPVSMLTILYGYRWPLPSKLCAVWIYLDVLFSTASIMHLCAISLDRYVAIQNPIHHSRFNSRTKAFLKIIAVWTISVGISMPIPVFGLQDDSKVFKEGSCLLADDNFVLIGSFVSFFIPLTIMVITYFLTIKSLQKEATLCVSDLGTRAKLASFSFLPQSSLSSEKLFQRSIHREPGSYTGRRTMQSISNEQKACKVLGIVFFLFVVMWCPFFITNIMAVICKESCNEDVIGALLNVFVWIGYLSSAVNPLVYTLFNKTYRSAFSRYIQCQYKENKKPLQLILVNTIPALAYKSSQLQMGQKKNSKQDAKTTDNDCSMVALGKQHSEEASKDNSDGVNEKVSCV

[5] = Half life in human liver microsomes at 1 uM measured for 5 to 60 mins under shaking condition in presence of NADPH by LCMS analysis; assay type: ADME, Microsome
[6] = biological target: 5-hydroxytryptamine receptor 6 (Homo sapiens, UniProt P50406); assay: biochemical
5-hydroxytryptamine receptor 6, sequence (P50406 whole entry): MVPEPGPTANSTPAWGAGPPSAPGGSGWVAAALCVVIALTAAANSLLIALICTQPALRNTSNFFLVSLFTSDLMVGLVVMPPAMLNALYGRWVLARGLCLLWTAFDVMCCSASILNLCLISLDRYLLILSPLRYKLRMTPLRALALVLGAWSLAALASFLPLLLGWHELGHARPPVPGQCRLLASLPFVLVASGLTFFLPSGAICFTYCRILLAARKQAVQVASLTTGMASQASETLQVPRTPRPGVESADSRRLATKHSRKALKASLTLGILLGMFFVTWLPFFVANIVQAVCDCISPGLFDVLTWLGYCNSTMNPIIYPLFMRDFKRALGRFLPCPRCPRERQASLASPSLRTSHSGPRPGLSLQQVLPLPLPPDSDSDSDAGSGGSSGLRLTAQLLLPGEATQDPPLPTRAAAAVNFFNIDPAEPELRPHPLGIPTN
Description: Displacement of [3H]LSD from human 5-HT6 receptor expressed in HEK cells incubated for 1 hr by Cheng-Prusoff analysis based microbeta scintillation counting method

[7] = system: Mus musculus; assay: Induction of hypothermia in CD-1 mouse assessed as change in body temperature at 5 mg/kg, ip treated for 60 mins and measured after 30 mins by thermometric method; assay type: functional, organism-based
[8] = system: Mus musculus; assay: Induction of hypothermia in CD-1 mouse assessed as change in body temperature at 5 mg/kg, ip treated for 120 mins and measured after 30 mins by thermometric method; assay type: functional, organism-based
[9] = system: Mus musculus; assay: Induction of hypothermia in CD-1 mouse assessed as change in body temperature at 20 mg/kg, ip treated for 60 mins and measured after 30 mins by thermometric method; assay type: functional, organism-based
[10] = system: Mus musculus; assay: Inhibition of 8-OH-DPAT-induced hypothermia in CD-1 mouse assessed change in body temperature at 20 mg/kg, ip pretreated for 45 mins followed by 8-OH-DPAT addition and measured after 30 mins by thermometric method; assay type: functional, organism-based
[11] = system: Mus musculus; assay: Induction of hypothermia in CD-1 mouse assessed as change in body temperature at 20 mg/kg, ip treated for 30 mins and measured after 30 mins by thermometric method; assay type: functional, organism-based
[12] = system: Mus musculus; assay: Inhibition of 8-OH-DPAT-induced hypothermia in CD-1 mouse assessed change in body temperature at 20 mg/kg, ip pretreated for 45 mins followed by 8-OH-DPAT addition and measured after 15 mins by thermometric method; assay type: functional, organism-based
[13] = system: Mus musculus; assay: Induction of hypothermia in CD-1 mouse assessed as change in body temperature at 5 mg/kg, ip treated for 90 mins and measured after 30 mins by thermometric method; assay type: functional, organism-based
[14] = system: Mus musculus; assay: Inhibition of 8-OH-DPAT-induced hypothermia in CD-1 mouse assessed change in body temperature at 20 mg/kg, ip pretreated for 45 mins followed by 8-OH-DPAT addition and measured after 45 mins by thermometric method; assay type: functional, organism-based
[15] = system: Mus musculus; assay: Inhibition of 8-OH-DPAT-induced hypothermia in CD-1 mouse assessed change in body temperature at 20 mg/kg, ip pretreated for 45 mins followed by 8-OH-DPAT addition and measured after 60 mins by thermometric method; assay type: functional, organism-based
[16] = system: Mus musculus; assay: Induction of hypothermia in CD-1 mouse assessed as change in body temperature at 20 mg/kg, ip treated for 120 mins and measured after 30 mins by thermometric method; assay type: functional, organism-based
[17] = system: Mus musculus; assay: Induction of hypothermia in CD-1 mouse assessed as change in body temperature at 5 mg/kg, ip treated for 30 mins and measured after 30 mins by thermometric method; assay type: functional, organism-based
[18] = system: Mus musculus; assay: Induction of hypothermia in CD-1 mouse assessed as change in body temperature at 20 mg/kg, ip treated for 90 mins and measured after 30 mins by thermometric method; assay type: functional, organism-based

5-hydroxytryptamine receptor 7, sequence (P34969 whole entry): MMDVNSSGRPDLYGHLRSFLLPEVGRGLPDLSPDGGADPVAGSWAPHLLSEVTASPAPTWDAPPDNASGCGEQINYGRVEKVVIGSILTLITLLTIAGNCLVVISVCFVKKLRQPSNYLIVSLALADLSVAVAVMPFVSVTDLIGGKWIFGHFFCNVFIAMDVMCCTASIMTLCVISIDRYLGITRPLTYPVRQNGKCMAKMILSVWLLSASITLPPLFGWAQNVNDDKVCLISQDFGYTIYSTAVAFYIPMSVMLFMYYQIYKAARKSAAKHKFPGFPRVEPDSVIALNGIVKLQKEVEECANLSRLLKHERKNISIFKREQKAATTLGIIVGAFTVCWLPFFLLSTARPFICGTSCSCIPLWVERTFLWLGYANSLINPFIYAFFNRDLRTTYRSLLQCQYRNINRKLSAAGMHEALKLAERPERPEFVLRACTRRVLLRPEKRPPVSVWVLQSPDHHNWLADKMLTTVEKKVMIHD
D(2) dopamine receptor, sequence (P14416 whole entry): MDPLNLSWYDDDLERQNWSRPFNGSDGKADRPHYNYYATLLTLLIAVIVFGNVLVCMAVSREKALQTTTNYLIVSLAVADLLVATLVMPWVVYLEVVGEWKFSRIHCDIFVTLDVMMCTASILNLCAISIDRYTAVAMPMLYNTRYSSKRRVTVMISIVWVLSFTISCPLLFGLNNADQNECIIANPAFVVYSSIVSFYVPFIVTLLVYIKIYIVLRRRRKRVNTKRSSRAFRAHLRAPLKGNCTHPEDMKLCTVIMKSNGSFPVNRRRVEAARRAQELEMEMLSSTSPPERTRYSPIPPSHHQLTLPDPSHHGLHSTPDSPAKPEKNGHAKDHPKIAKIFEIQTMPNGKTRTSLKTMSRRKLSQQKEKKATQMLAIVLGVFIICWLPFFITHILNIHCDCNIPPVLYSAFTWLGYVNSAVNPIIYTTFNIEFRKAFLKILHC

COc1ccc(-c2c3n(c(=O)n(CCCCN4CCCC(c5c[nH]c6ccc(OC)cc56)C4)c2=O)CCCC3)cc1 (stereo not given)
Ki [1]: 0.546 µM | Ki [2]: 1.8 µM | Ki [3]: 0.052 µM | Ki [4]: 1.19 µM | half-life at 1 µM [5]: 7 min | Ki [6]: 0.452 µM

O=c1c(-c2ccccc2F)c2n(c(=O)n1CCCCN1CCCC(c3c[nH]c4ccc(F)cc34)C1)CCCC2 (stereo not given)
Ki [3]: 0.028 µM

O=c1c(-c2ccccc2Cl)c2n(c(=O)n1CCCCN1CCCC(c3c[nH]c4ccc(F)cc34)C1)CCCC2 (stereo not given)
Ki [3]: 0.047 µM

COc1ccccc1-c1c2n(c(=O)n(CCCCN3CCCC(c4c[nH]c5ccc(F)cc45)C3)c1=O)CCCC2 (stereo not given)
Ki [3]: 0.04 µM

COc1ccc2[nH]cc(C3CCCN(CCCCn4c(=O)c(-c5ccccc5Cl)c5n(c4=O)CCCC5)C3)c2c1 (stereo not given)
Ki [3]: 0.05 µM

COc1ccc2[nH]cc(C3CCCN(CCCCn4c(=O)c(-c5ccccc5C)c5n(c4=O)CCCC5)C3)c2c1 (stereo not given)
Ki [3]: 0.066 µM

COc1ccc2[nH]cc(C3CCCN(CCCCn4c(=O)c(-c5ccc(C)cc5)c5n(c4=O)CCCC5)C3)c2c1 (stereo not given)
Ki [3]: 0.321 µM

COc1ccccc1-c1c2n(c(=O)n(CCCCN3CCCC(c4c[nH]c5ccccc45)C3)c1=O)CCCC2 (stereo not given)
Ki [3]: 0.025 µM

COc1ccc2[nH]cc(C3CCCN(CCCCn4c(=O)c(-c5ccccc5)c5n(c4=O)CCCC5)C3)c2c1 (stereo not given)
Ki [3]: 0.102 µM

Cc1ccccc1-c1c2n(c(=O)n(CCCCN3CCCC(c4c[nH]c5ccccc45)C3)c1=O)CCCC2 (stereo not given)
Ki [3]: 0.062 µM

COc1ccc2[nH]cc(C3CCCN(CCCCn4c(=O)c(-c5ccc(F)cc5)c5n(c4=O)CCCC5)C3)c2c1 (stereo not given)
Ki [3]: 0.076 µM

Cc1ccc(-c2c3n(c(=O)n(CCCCN4CCCC(c5c[nH]c6ccc(F)cc56)C4)c2=O)CCCC3)cc1 (stereo not given)
Ki [3]: 0.233 µM

O=c1c(-c2ccc(Cl)cc2)c2n(c(=O)n1CCCCN1CCCC(c3c[nH]c4ccccc34)C1)CCCC2 (stereo not given)
deltaT [7]: 0.3 °C | Ki [1]: 1.38 µM | deltaT [8]: 0.2 °C | Ki [2]: 1.65 µM | deltaT [9]: 0.7 °C | deltaT [10]: -1.1 °C | Ki [3]: 0.03 µM | deltaT [11]: 0.3 °C | deltaT [12]: -1.1 °C | deltaT [13]: -0.1 °C | deltaT [14]: -1.2 °C | deltaT [15]: -1.2 °C | Ki [4]: 1.49 µM | deltaT [16]: 0.3 °C | deltaT [17]: 0.1 °C | Ki [6]: 1.32 µM | deltaT [18]: 0.5 °C

O=c1c(-c2ccc(Cl)cc2)c2n(c(=O)n1CCCCN1CCCC(c3c[nH]c4ccc(F)cc34)C1)CCCC2 (stereo not given)
Ki [3]: 0.259 µM
